Experimental findings from the supplement of paper PMC10307832 are described below.

Common to all, as to assay: relative viability (nuclei count vs DMSO), 5 days (fraction); higher = more cells survive
Compound in assay [1]: CC(C)(C)c1cc(NC(=O)Nc2ccc(-c3cn4c(n3)sc3cc(OCCN5CCOCC5)ccc34)cc2)no1 [Quizartinib] + O=C(CCCCCCC(=O)Nc1ccccc1)NO [Vorinostat] (partner 1 µM)
Put shortly: (§1)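 Relative viability is defined as nuclei in treated wells over nuclei in vehicle wells. Duplicate plates were run and medians reported. Lung cancer cell lines in 1536-well plates were dosed by pin tool one day after seeding, with one drug or with a fixed anchor-drug dose plus five library-drug doses (not always all listed) in √10 steps, and nuclei were counted after 5 days.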

Compound in assay [2]: COCC[n+]1c2c(n(Cc3cnccn3)c1C)C(=O)c1ccccc1C2=O [YM155] + CC(=O)Nc1cccc(-n2c(=O)n(C3CC3)c(=O)c3c(Nc4ccc(I)cc4F)n(C)c(=O)c(C)c32)c1 [Trametinib] (partner 0.02 µM)
The method, boiled down:
as §1

Compound in assay [3]: COCC[n+]1c2c(n(Cc3cnccn3)c1C)C(=O)c1ccccc1C2=O [YM155] + CC(=O)c1c(C)c2cnc(Nc3ccc(N4CCNCC4)cn3)nc2n(C2CCCC2)c1=O [Palbociclib] (partner 0.5 µM)
The method, boiled down:
as §1

Compound in assay [4]: COCC[n+]1c2c(n(Cc3cnccn3)c1C)C(=O)c1ccccc1C2=O [YM155] + Cc1cc(Nc2cc(N3CCN(C)CC3)nc(Sc3ccc(NC(=O)C4CC4)cc3)n2)n[nH]1 [Tozasertib] (partner 0.1 µM)
The method, boiled down:
as §1

Compound in assay [5]: COCC[n+]1c2c(n(Cc3cnccn3)c1C)C(=O)c1ccccc1C2=O [YM155] + NC(=O)Nc1cc(-c2cccc(F)c2)sc1C(=O)N[C@H]1CCCNC1 [AZD7762] (partner 0.2 µM)
Put shortly: as §1

Compound in assay [6]: COCC[n+]1c2c(n(Cc3cnccn3)c1C)C(=O)c1ccccc1C2=O [YM155] + Nc1ncn([C@H]2C[C@H](O)[C@@H](CO)O2)c(=O)n1 [Decitabine] (partner 2 µM)
Put shortly: as §1

Take NCI-H1648: the relative viability in assay [1] (first compound 0.003162 µM) turned out to be 0.315; in assay [1] (first compound 0.03162 µM) it was 0.32; in assay [1] (first compound 0.1 µM), 0.927; in assay [2] (first compound 0.006325 µM), 0.902; in assay [2] (first compound 0.02 µM), 0.444; in assay [2] (first compound 0.06325 µM), 0.651. Further, the relative viability in assay [3] (first compound 0.006325 µM) came out at 0.299; in assay [3] (first compound 0.02 µM), 0.306; in assay [3] (first compound 0.06325 µM) it was 0.295; in assay [4] (first compound 0.002 µM), 0.386; in assay [4] (first compound 0.006325 µM) it was 0.605; in assay [4] (first compound 0.02 µM) it was 0.586. The relative viability in assay [4] (first compound 0.06325 µM) worked out at 0.427; in assay [5] (first compound 0.006325 µM), 0.689; in assay [5] (first compound 0.02 µM) it was 0.557; in assay [5] (first compound 0.06325 µM) it was 0.634; in assay [6] (first compound 0.006325 µM), 0.593; in assay [6] (first compound 0.02 µM) it was 0.41. Besides, the relative viability in assay [6] (first compound 0.06325 µM) was 0.599.
